28 compounds from US20110082130A1 (LIGAND PHARMACEUTICALS, INC., priority 2006, published 2011) can be followed below.

Broadly, the inhibition is how much of the control response was suppressed.

Molecules are shown by their SMILES.

T1 sequence (Q9Y5N1 with tags, fused parts or gaps): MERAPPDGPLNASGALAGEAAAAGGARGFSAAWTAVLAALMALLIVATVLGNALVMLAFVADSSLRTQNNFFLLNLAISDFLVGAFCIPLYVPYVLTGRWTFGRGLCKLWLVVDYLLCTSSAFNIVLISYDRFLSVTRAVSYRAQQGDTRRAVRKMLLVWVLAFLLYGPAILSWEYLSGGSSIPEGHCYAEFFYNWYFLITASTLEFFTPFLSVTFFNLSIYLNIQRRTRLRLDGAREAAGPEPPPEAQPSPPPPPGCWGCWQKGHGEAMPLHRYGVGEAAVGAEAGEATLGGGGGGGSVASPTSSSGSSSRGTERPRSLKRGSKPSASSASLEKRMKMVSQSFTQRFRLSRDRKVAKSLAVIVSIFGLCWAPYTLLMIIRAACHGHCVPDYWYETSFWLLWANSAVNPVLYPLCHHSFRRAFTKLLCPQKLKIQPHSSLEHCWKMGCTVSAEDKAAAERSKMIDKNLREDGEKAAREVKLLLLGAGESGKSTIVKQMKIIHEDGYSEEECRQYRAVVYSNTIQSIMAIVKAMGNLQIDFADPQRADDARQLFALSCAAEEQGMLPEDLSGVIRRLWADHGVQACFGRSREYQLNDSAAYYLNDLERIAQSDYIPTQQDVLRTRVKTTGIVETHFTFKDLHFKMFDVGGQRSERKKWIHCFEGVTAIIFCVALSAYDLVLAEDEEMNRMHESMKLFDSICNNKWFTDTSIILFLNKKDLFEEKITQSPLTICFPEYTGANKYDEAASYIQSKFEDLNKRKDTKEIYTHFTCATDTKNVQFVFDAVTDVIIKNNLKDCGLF

One assay has as its target T1, chimeric human H3 receptor (Homo sapiens, UniProt Q9Y5N1).
T1 construct: made in house; host or cells: Sf9 insect cells (baculovirus); P2 membrane preparation
Nature of the assay: Chimeric human H3 receptor screening GTP binding assay (inhibition of histamine-stimulated GTP-gamma35S binding, Example 8). It counts as biochemical. Conditions: 4 μM of the compound, 1 μM histamine, "†" in Ki of Table II, read-out: percent inhibition of the signal obtained with 1 μM histamine. How it is done: This Example illustrates a representative screening assay for evaluating inhibition of histamine-stimulated GTP-gamma^35S binding. Such GTP binding activity can be used to identify H3 antagonists and inverse agonists. A compound analyzed in this assay is referred to herein as a “test compound,” and the initial identification of antagonists and inverse agonists is performed using a test compound concentration of 4 μM.
Four independent baculoviral stocks (one directing the expression of the chimeric human H3 receptor and three directing the expression of each of the three subunits of a heterotrimeric G-protein) are used to infect a culture of Sf9 cells as described above. P2 membranes are prepared as described above, and are resuspended by Dounce homogenization (tight pestle) in GTP binding assay buffer (50 mM Tris pH 7.4, 120 mM NaCl, 5 mM MgCl2, 2 mM EGTA, 1 mg/ml BSA, 0.2 mg/ml bacitracin, 0.02 mg/ml aprotinin, 0.01 mg/ml saponin, 10 μM GDP) and added to assay tubes at a concentration of 35 μg protein/reaction tube. Non-radiolabeled test compounds are added to separate reactions at a concentration of 4 μM along with 1 μM histamine (agonist). Reactions are initiated by the addition of […] GTP-gamma^35S with a final assay volume of 0.20 ml.
After a 60-min incubation at room temperature, reactions are terminated by vacuum filtration over GF/C filters (pre-soaked in 50 mM Tris pH 7.4, 120 mM NaCl plus 0.1% BSA) followed by washing with ice-cold buffer (50 mM Tris pH 7.4, 120 mM NaCl). The amount of receptor-bound (and thereby membrane-bound) GTP-gamma^35S is determined by measuring the bound radioactivity, preferably by liquid scintillation spectrometry of the washed filters. Non-specific binding is determined using 10 uM GTP-gammaS and typically represents less than 5 percent of total binding. After subtraction of non-specific binding, data is expressed as percent inhibition of 1 μM histamine signal.
Neutral antagonists are those test compounds that reduce the histamine-stimulated GTP binding activity towards, but not below, baseline levels. In contrast, in the absence of added histamine, inverse agonists reduce the GTP binding activity of the receptor-containing membranes below baseline. Any test compound that elevates GTP binding activity above baseline in the absence of added histamine in this assay is defined as having agonist activity.
Background: GTPγS is a poorly hydrolysed GTP analogue; its binding reports G protein activation.
As for `O=C(CN1CCc2cc(-c3ccc(OC(F)(F)F)cc3)ccc2C1)N1CCN(C2CCCC2)CC1` [Compound 479, 2-[2-(4-cyclopentylpiperazin-1-yl)-2-oxoethyl]-6-[4-(trifluoromethoxy)phenyl]-1,2,3,4-tetrahydroisoquinoline], the inhibition at 4 µM is at least 90%.
The same measure, in the same setting: the value for `Cc1cc(-c2ccc3c(c2)CCN(CC(=O)N2CCN(C4CCCCC4)CC2)C3)ccc1F` [Compound 431, 2-[2-(4-cyclohexylpiperazin-1-yl)-2-oxoethyl]-6-(4-fluoro-3-methylphenyl)-1,2,3,4-tetrahydroisoquinoline] was at least 90%; that for `Cc1cccc(-c2ccc3c(c2)CCN(CC(=O)N2CCN(C4CCCC4)CC2)C3)c1` [Compound 433, 2-[2-(4-cyclopentylpiperazin-1-yl)-2-oxoethyl]-6-(3-methylphenyl)-1,2,3,4-tetrahydroisoquinoline] was at least 90%; that for `Cc1ccc(-c2ccc3c(c2)CCN(CC(=O)N2CCN(C4CCC4)CC2)C3)cc1` [Compound 435, 2-[2-(4-cyclobutylpiperazin-1-yl)-2-oxoethyl]-6-(4-methylphenyl)-1,2,3,4-tetrahydroisoquinoline] was at least 90%.
Same read-out and setting: the value for `Cc1ccc(-c2ccc3c(c2)CCN(CC(=O)N2CCN(C4CCCC4)CC2)C3)cc1` [Compound 436, 2-[2-(4-cyclopentylpiperazin-1-yl)-2-oxoethyl]-6-(4-methylphenyl)-1,2,3,4-tetrahydroisoquinoline] was at least 90%; that for `O=C(CN1CCc2cc(-c3ccc(Cl)cc3)ccc2C1)N1CCN(C2CCC2)CC1` [Compound 404, 6-(4-chlorophenyl)-2-[2-(4-cyclobutylpiperazin-1-yl)-2-oxoethyl]-1,2,3,4-tetrahydroisoquinoline] was at least 90%; that for `O=C(CN1CCc2cc(-c3ccc(F)cc3)ccc2C1)N1CCN(C2CCCCC2)CC1` [Compound 409, 2-[2-(4-cyclohexylpiperazin-1-yl)-2-oxoethyl]-6-(4-fluorophenyl)-1,2,3,4-tetrahydroisoquinoline] was at least 90%.
Still for that read-out and setting: the result for `O=C(CN1CCc2cc(-c3ccccc3F)ccc2C1)N1CCN(C2CCC2)CC1` [Compound 414, 2-[2-(4-cyclobutylpiperazin-1-yl)-2-oxoethyl]-6-(2-fluorophenyl)-1,2,3,4-tetrahydroisoquinoline] reads at least 90%; that for `Cc1cc(C)cc(-c2ccc3c(c2)CCN(CC(=O)N2CCN(C4CCCC4)CC2)C3)c1` [Compound 456, 2-[2-(4-cyclopentylpiperazin-1-yl)-2-oxoethyl]-6-(3,5-dimethylphenyl)-1,2,3,4-tetrahydroisoquinoline], at least 90%; that for `CC(C)N1CCN(C(=O)CN2CCc3cc(-c4cccc(F)c4)ccc3C2)CC1` [Compound 413, 6-(3-fluorophenyl)-2-[2-(4-isopropylpiperazin-1-yl)-2-oxoethyl]-1,2,3,4-tetrahydroisoquinoline], at least 90%.
In the case of `CC(C)N1CCN(C(=O)CN2CCc3cc(-c4ccc(OC(F)(F)F)cc4)ccc3C2)CC1` [Compound 481, 2-[2-(4-isopropylpiperazin-1-yl)-2-oxoethyl]-6-[4-(trifluoromethoxy)phenyl]-1,2,3,4-tetrahydroisoquinoline], the inhibition at 4 µM was at least 90%.
The same measure, in the same setting: the value for `CC(C)c1cccc(-c2ccc3c(c2)CCN(CC(=O)N2CCN(C4CCC4)CC2)C3)c1` [Compound 439, 2-[2-(4-cyclobutylpiperazin-1-yl)-2-oxoethyl]-6-(3-isopropylphenyl)-1,2,3,4-tetrahydroisoquinoline] was at least 90%.
Take `Cc1cc(-c2ccc3c(c2)CCN(CC(=O)N2CCN(C4CCC4)CC2)C3)ccc1F` [Compound 429, 2-[2-(4-cyclobutylpiperazin-1-yl)-2-oxoethyl]-6-(4-fluoro-3-methylphenyl)-1,2,3,4-tetrahydroisoquinoline]: the inhibition at 4 µM is at least 90%.
Turning to `CCc1cccc(-c2ccc3c(c2)CCN(CC(=O)N2CCN(C4CCCC4)CC2)C3)c1` [Compound 468, 2-[2-(4-cyclopentylpiperazin-1-yl)-2-oxoethyl]-6-(3-ethylphenyl)-1,2,3,4-tetrahydroisoquinoline], the inhibition at 4 µM was at least 90%.
Still for that read-out and setting: the value for `Cc1cccc(-c2ccc3c(c2)CCN(CC(=O)N2CCN(C4CCC4)CC2)C3)c1` [Compound 432, 2-[2-(4-cyclobutylpiperazin-1-yl)-2-oxoethyl]-6-(3-methylphenyl)-1,2,3,4-tetrahydroisoquinoline] was at least 90%.

The assay is the same for the next values; noted with them: Table II "Ki", symbol †, 4 μM of the compound, 1 μM histamine, read-out: percent inhibition of the signal obtained with 1 μM histamine.
Turning to `O=C(CN1CCc2cc(-c3cc(F)ccc3F)ccc2C1)N1CCN(C2CCC2)CC1` [Compound 582, 2-[2-(4-cyclobutylpiperazin-1-yl)-2-oxoethyl]-6-(2,5-difluorophenyl)-1,2,3,4-tetrahydroisoquinoline], the inhibition at 4 µM was at least 90%.
Take `COc1cc(-c2ccc3c(c2)CCN(CC(=O)N2CCN(C(C)C)CC2)C3)cc(OC)c1OC` [Compound 519, 2-[2-(4-isopropylpiperazin-1-yl)-2-oxoethyl]-6-(3,4,5-trimethoxyphenyl)-1,2,3,4-tetrahydroisoquinoline]: the inhibition at 4 µM was at least 90%.
Same read-out and setting: the result for `CC(C)N1CCN(C(=O)CN2CCc3cc(-c4ccccc4Oc4ccccc4)ccc3C2)CC1` [Compound 578, 2-[2-(4-isopropylpiperazin-1-yl)-2-oxoethyl]-6-(2-phenoxyphenyl)-1,2,3,4-tetrahydroisoquinoline] reads at least 90%.
Same read-out and setting: the result for `O=C(CN1CCc2cc(-c3cccc(F)c3F)ccc2C1)N1CCN(C2CCC2)CC1` [Compound 599, 2-[2-(4-cyclobutylpiperazin-1-yl)-2-oxoethyl]-6-(2,3-difluorophenyl)-1,2,3,4-tetrahydroisoquinoline] reads at least 90%.
Same read-out and setting: the result for `CCOc1ccc(-c2ccc3c(c2)CCN(CC(=O)N2CCN(C4CCCCC4)CC2)C3)cc1` [Compound 530, 2-[2-(4-cyclohexylpiperazin-1-yl)-2-oxoethyl]-6-(4-ethoxyphenyl)-1,2,3,4-tetrahydroisoquinoline] reads at least 90%.
Take `O=C(CN1CCc2cc(-c3cncnc3)ccc2C1)N1CCN(C2CCOCC2)CC1` [Compound 621, 2-{2-oxo-2-[4-(tetrahydro-2H-pyran-4-yl)piperazin-1-yl]ethyl}-6-pyrimidin-5-yl-1,2,3,4-tetrahydroisoquinoline]: the inhibition at 4 µM was at least 90%.
Still for that read-out and setting: the result for `CCCCN1CCN(C(=O)CN2CCc3cc(-c4cncnc4)ccc3C2)CC1` [Compound 604, 2-[2-(4-butylpiperazin-1-yl)-2-oxoethyl]-6-pyrimidin-5-yl-1,2,3,4-tetrahydroisoquinoline] reads at least 90%; that for `COc1ccc(-c2ccc3c(c2)CCN(CC(=O)N2CCN(C4CCCCC4)CC2)C3)cc1F` [Compound 504, 2-[2-(4-cyclohexylpiperazin-1-yl)-2-oxoethyl]-6-(3-fluoro-4-methoxyphenyl)-1,2,3,4-tetrahydroisoquinoline], at least 90%.
Still for that read-out and setting: the value for `COc1ccc(C(C)C)cc1-c1ccc2c(c1)CCN(CC(=O)N1CCN(C3CCCC3)CC1)C2` [Compound 555, 2-[2-(4-cyclopentylpiperazin-1-yl)-2-oxoethyl]-6-(5-isopropyl-2-methoxyphenyl)-1,2,3,4-tetrahydroisoquinoline] was at least 90%.
On the same count and under the same terms, the value for `O=C(CN1CCc2cc(-c3ccc(F)cc3F)ccc2C1)N1CCN(C2CCCC2)CC1` [Compound 587, 2-[2-(4-cyclopentylpiperazin-1-yl)-2-oxoethyl]-6-(2,4-difluorophenyl)-1,2,3,4-tetrahydroisoquinoline] was at least 90%.
As for `COc1ccc(-c2ccc3c(c2)CCN(CC(=O)N2CCN(C(C)C)CC2)C3)cc1C` [Compound 543, 2-[2-(4-isopropylpiperazin-1-yl)-2-oxoethyl]-6-(4-methoxy-3-methylphenyl)-1,2,3,4-tetrahydroisoquinoline], the inhibition at 4 µM was at least 90%.
Same read-out and setting: the result for `O=C(CN1CCc2cc(-c3ccc(Cl)c(Cl)c3)ccc2C1)N1CCN(C2CCC2)CC1` [Compound 594, 2-[2-(4-cyclobutylpiperazin-1-yl)-2-oxoethyl]-6-(3,4-dichlorophenyl)-1,2,3,4-tetrahydroisoquinoline] reads at least 90%; that for `COc1ccccc1-c1ccc2c(c1)CCN(CC(=O)N1CCN(C3CCC3)CC1)C2` [Compound 551, 2-[2-(4-cyclobutylpiperazin-1-yl)-2-oxoethyl]-6-(2-methoxyphenyl)-1,2,3,4-tetrahydroisoquinoline], at least 90%.
